Reference: patent US20100267561A1, “HERBICIDAL PYRIDAZINONE DERIVATIVES” (priority 2007, published 2010)

Tests used:
Assay in all cases: Test B pre-/postemergence plant response
Assay type in all cases: in vivo
[1] = tested on: downy bromegrass (Bromus tectorum)
Procedure, shortened: (§1)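 Visual scoring from 0 (no effect) to 100 (complete control) against untreated controls was done 13 to 15 days after greenhouse treatment. Chemicals were formulated in a surfactant-containing non-phytotoxic solvent and applied to soil preemergence or to 1- to 4-leaf (2-18 cm) plants postemergence.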

[2] = tested on: surinam grass (Brachiaria decumbens)
Procedure, shortened: as §1

[3] = tested on: soybean (Glycine max)
Procedure, shortened: as §1

[4] = tested on: catchweed bedstraw (Galium aparine); settings: Preemergence
Procedure, shortened: as §1

[5] = tested on: cocklebur (Xanthium strumarium)
Procedure, shortened: as §1

[6] = tested on: common (oilseed) sunflower (Helianthus annuus); settings: Preemergence
Procedure, shortened: as §1

[7] = tested on: Russian thistle (Salsola iberica); settings: Preemergence
Procedure, shortened: as §1

[8] = tested on: common ragweed (Ambrosia elation)
Procedure, shortened: as §1

[9] = tested on: large crabgrass (Digitaria sanguinalis)
Procedure, shortened: as §1

[10] = tested on: goosegrass (Eleusine indica)
Procedure, shortened: as §1

[11] = tested on: woolly cupgrass (Eriochloa villosa)
Procedure, shortened: as §1

[12] = tested on: Italian ryegrass (Lolium multiflorum)
Procedure, shortened: as §1

[13] = tested on: pigweed (Amaranthus retroflexus)
Procedure, shortened: as §1

[14] = 8 g ai/ha, postemergence, 0-100 scale
[15] = Postemergence, 16 g ai/ha, scale 0 to 100
[16] = Postemergence, 31 g ai/ha, scale 0 to 100
[17] = Postemergence, 62 g ai/ha, scale 0 to 100, 0 no effect, 100 complete control
[18] = Preemergence, 8 g ai/ha, scale 0 to 100 (0 no effect, 100 complete control)
[19] = Preemergence, 31 g ai/ha, scale 0 to 100 (0 no effect, 100 complete control)
[20] = Preemergence, 62 g ai/ha, 0 to 100 scale, 0 no effect, 100 complete control
[21] = Preemergence, 16 g ai/ha, scale 0 to 100
[22] = 16 g ai/ha, postemergence, 0-100 scale
[23] = 8 g ai/ha, scale 0 to 100 (0 no effect, 100 complete control)
[24] = 31 g ai/ha, scale 0 to 100 (0 no effect, 100 complete control)
[25] = 62 g ai/ha, 0 to 100 scale, 0 no effect, 100 complete control

Question: `Cc1nn(C)c(=O)c(-n2nc(-c3ccc(Br)cc3)cc2C)c1O` [Compound 81] was tested. Which “Bromegrass, Downy plant response rating” value [1, 14] did it give?
Answer: Its value is 0.

Question: What about the “Plant response rating, Bromegrass, Downy” value [1, 15] of the same compound?
Answer: Its value is 45.

Question: And the “Plant response rating, Bromegrass, Downy” value [1, 16]?
Answer: The value was 50.

Question: What about the “Plant response rating, Bromegrass, Downy” value [1, 17] of the same compound?
Answer: Its value is 70.

Question: And the “Bromegrass, Downy plant response rating” value [1, 18]?
Answer: The value was 20.

Question: What about the “Plant response rating, Bromegrass, Downy” value [1, 19] of the same compound?
Answer: The value was 70.

Question: What about the “Plant response rating, Bromegrass, Downy” value [1, 20] of the same compound?
Answer: Its value is 85.

Question: What about the “Bromegrass, Downy plant response rating” value [1, 21] of the same compound?
Answer: Its value is 70.

Question: And the “Surinam Grass plant response rating” value [2, 14]?
Answer: Its value is 90.

Question: And the “Surinam Grass plant response rating” value [2, 22]?
Answer: The value was 98.

Question: What about the “Plant response rating, Surinam Grass” value [2, 16] of the same compound?
Answer: Its value is 100.

Question: What about the “Plant response rating, Surinam Grass” value [2, 17] of the same compound?
Answer: The value was 100.

Question: What about the “Surinam Grass plant response rating” value [2, 18] of the same compound?
Answer: Its value is 60.

Question: What about the “Plant response rating, Surinam Grass” value [2, 19] of the same compound?
Answer: The value was 100.

Question: What about the “Plant response rating, Surinam Grass” value [2, 20] of the same compound?
Answer: The value was 100.

Question: And the “Surinam Grass plant response rating” value [2, 21]?
Answer: Its value is 85.

Question: What about the “Soybean plant response rating” value [3, 14] of the same compound?
Answer: Its value is 0.

Question: What about the “Soybean plant response rating” value [3, 22] of the same compound?
Answer: Its value is 0.

Question: And the “Plant response rating, Soybean” value [3, 16]?
Answer: The value was 15.

Question: And the “Plant response rating, Soybean” value [3, 17]?
Answer: Its value is 20.

Question: And the “Soybean plant response rating” value [3, 18]?
Answer: Its value is 0.

Question: And the “Plant response rating, Soybean” value [3, 19]?
Answer: Its value is 0.

Question: And the “Plant response rating, Soybean” value [3, 20]?
Answer: Its value is 0.

Question: What about the “Soybean plant response rating” value [3, 21] of the same compound?
Answer: The value was 0.

Question: And the “Galium plant response rating” value [4, 23]?
Answer: Its value is 0.

Question: And the “Plant response rating, Galium” value [4, 24]?
Answer: Its value is 0.

Question: And the “Plant response rating, Galium” value [4, 25]?
Answer: The value was 0.

Question: And the “Galium plant response rating” value ([4]; 16 g ai/ha, scale 0 to 100)?
Answer: Its value is 0.

Question: And the “Cocklebur plant response rating” value [5, 14]?
Answer: Its value is 0.

Question: What about the “Plant response rating, Cocklebur” value [5, 15] of the same compound?
Answer: Its value is 0.

Question: What about the “Plant response rating, Cocklebur” value [5, 16] of the same compound?
Answer: The value was 0.

Question: And the “Plant response rating, Cocklebur” value [5, 17]?
Answer: Its value is 0.

Question: And the “Cocklebur plant response rating” value [5, 18]?
Answer: Its value is 0.

Question: What about the “Plant response rating, Cocklebur” value [5, 19] of the same compound?
Answer: Its value is 0.

Question: What about the “Plant response rating, Cocklebur” value [5, 20] of the same compound?
Answer: The value was 0.

Question: And the “Cocklebur plant response rating” value [5, 21]?
Answer: The value was 0.

Question: And the “Sunflower plant response rating” value [6, 23]?
Answer: Its value is 0.

Question: What about the “Plant response rating, Sunflower” value [6, 24] of the same compound?
Answer: The value was 15.

Question: And the “Plant response rating, Sunflower” value [6, 25]?
Answer: Its value is 20.

Question: What about the “Sunflower plant response rating” value ([6]; 16 g ai/ha, scale 0 to 100) of the same compound?
Answer: Its value is 0.

Question: What about the “Russian Thistle plant response rating” value [7, 23] of the same compound?
Answer: The value was 0.

Question: What about the “Plant response rating, Russian Thistle” value [7, 24] of the same compound?
Answer: The value was 0.

Question: And the “Plant response rating, Russian Thistle” value [7, 25]?
Answer: The value was 0.

Question: And the “Russian Thistle plant response rating” value ([7]; 16 g ai/ha, scale 0 to 100)?
Answer: Its value is 0.

Question: What about the “Ragweed plant response rating” value [8, 14] of the same compound?
Answer: Its value is 0.

Question: And the “Ragweed plant response rating” value [8, 22]?
Answer: Its value is 0.

Question: And the “Plant response rating, Ragweed” value [8, 16]?
Answer: The value was 0.

Question: And the “Plant response rating, Ragweed” value [8, 17]?
Answer: Its value is 20.

Question: What about the “Ragweed plant response rating” value [8, 18] of the same compound?
Answer: The value was 0.

Question: What about the “Plant response rating, Ragweed” value [8, 19] of the same compound?
Answer: The value was 0.

Question: And the “Plant response rating, Ragweed” value [8, 20]?
Answer: The value was 0.

Question: And the “Ragweed plant response rating” value [8, 21]?
Answer: The value was 0.

Question: And the “Crabgrass, Large plant response rating” value [9, 14]?
Answer: The value was 50.

Question: What about the “Plant response rating, Crabgrass, Large” value [9, 15] of the same compound?
Answer: The value was 98.

Question: And the “Plant response rating, Crabgrass, Large” value [9, 16]?
Answer: The value was 100.

Question: And the “Plant response rating, Crabgrass, Large” value [9, 17]?
Answer: Its value is 100.

Question: And the “Crabgrass, Large plant response rating” value [9, 18]?
Answer: The value was 65.

Question: And the “Plant response rating, Crabgrass, Large” value [9, 19]?
Answer: The value was 100.

Question: What about the “Plant response rating, Crabgrass, Large” value [9, 20] of the same compound?
Answer: The value was 100.

Question: And the “Crabgrass, Large plant response rating” value [9, 21]?
Answer: Its value is 98.

Question: And the “Goosegrass plant response rating” value [10, 14]?
Answer: The value was 65.

Question: And the “Goosegrass plant response rating” value [10, 22]?
Answer: Its value is 70.

Question: And the “Plant response rating, Goosegrass” value [10, 16]?
Answer: Its value is 80.

Question: And the “Plant response rating, Goosegrass” value [10, 17]?
Answer: Its value is 85.

Question: What about the “Goosegrass plant response rating” value [10, 18] of the same compound?
Answer: The value was 80.

Question: What about the “Plant response rating, Goosegrass” value [10, 19] of the same compound?
Answer: The value was 100.

Question: And the “Plant response rating, Goosegrass” value [10, 20]?
Answer: Its value is 100.

Question: And the “Goosegrass plant response rating” value [10, 21]?
Answer: Its value is 98.

Question: And the “Cupgrass, Woolly plant response rating” value [11, 14]?
Answer: The value was 75.

Question: And the “Plant response rating, Cupgrass, Woolly” value [11, 15]?
Answer: The value was 85.

Question: What about the “Plant response rating, Cupgrass, Woolly” value [11, 16] of the same compound?
Answer: Its value is 95.

Question: What about the “Plant response rating, Cupgrass, Woolly” value [11, 17] of the same compound?
Answer: The value was 98.

Question: What about the “Cupgrass, Woolly plant response rating” value [11, 18] of the same compound?
Answer: Its value is 20.

Question: What about the “Plant response rating, Cupgrass, Woolly” value [11, 19] of the same compound?
Answer: The value was 95.

Question: And the “Plant response rating, Cupgrass, Woolly” value [11, 20]?
Answer: The value was 98.

Question: And the “Cupgrass, Woolly plant response rating” value [11, 21]?
Answer: The value was 45.

Question: And the “Ryegrass, Italian plant response rating” value [12, 14]?
Answer: Its value is 85.

Question: And the “Ryegrass, Italian plant response rating” value [12, 22]?
Answer: The value was 90.

Question: And the “Plant response rating, Ryegrass, Italian” value [12, 16]?
Answer: The value was 100.

Question: What about the “Plant response rating, Ryegrass, Italian” value [12, 17] of the same compound?
Answer: The value was 100.

Question: And the “Ryegrass, Italian plant response rating” value [12, 18]?
Answer: Its value is 70.

Question: What about the “Plant response rating, Ryegrass, Italian” value [12, 19] of the same compound?
Answer: The value was 100.

Question: What about the “Plant response rating, Ryegrass, Italian” value [12, 20] of the same compound?
Answer: The value was 100.

Question: And the “Ryegrass, Italian plant response rating” value [12, 21]?
Answer: Its value is 100.

Question: And the “Pigweed plant response rating” value [13, 14]?
Answer: The value was 0.

Question: What about the “Pigweed plant response rating” value [13, 22] of the same compound?
Answer: Its value is 0.

Question: What about the “Plant response rating, Pigweed” value [13, 16] of the same compound?
Answer: Its value is 0.

Question: And the “Plant response rating, Pigweed” value [13, 17]?
Answer: Its value is 0.

Question: And the “Pigweed plant response rating” value [13, 18]?
Answer: Its value is 0.

Question: What about the “Plant response rating, Pigweed” value [13, 19] of the same compound?
Answer: The value was 0.

Question: What about the “Plant response rating, Pigweed” value [13, 20] of the same compound?
Answer: Its value is 55.

Question: And the “Pigweed plant response rating” value [13, 21]?
Answer: Its value is 0.
